Experimental data reported in patent US20230414557A1, “NEW THERAPY CONCEPT FOR THE TREATMENT OF CORONA INFECTIONS, ESPECIALLY COVID-19 INFECTIONS” (priority 2020, published 2023).

Experiments:
COVID-19 [1] = details: human, in vivo; cited from earlier work
NO-production = NO-production in stimulated human monocytes in vitro; format: cell-based; details: 20 hours
hydrogen peroxide (H2O2) = assay: production of hydrogen peroxide; format: cell-based; details: even at lower concentrations and in the therapeutic range
COVID-19 [2] = assay: thrombocytes from patients suffering from COVID-19 incubated with 1,8-cineole; format: cell-based, human; details: thrombocytes from COVID-19 patients incubated with 1,8-cineole
Excerpt: This antiviral effect of 1,8-cineole in COVID-19 infections is completely unexpected.

corona viruses = format: cell-based, human
IL-1beta = assay: LPS-stimulated production of IL-1beta in human monocytes in vitro (ELISA); format: cell-based; details: for IL-1beta / effect vs. control inhibition (%): LPS-stimulated human monocytes
Description: In cell culture supernatants, the production of IL-1beta is determined by ELISA (Cayman Chemical, Ann Arbor, Michigan, USA).

[3] = system: TNF-alpha (tumor necrosis factor-alpha); assay: production of TNF-alpha in human monocytes of volunteers; format: cell-based; details: 1,8-cineole alone
IL-8 (interleukin-8) = assay: production of IL-8 in human monocytes of volunteers; format: cell-based; details: 1,8-cineole alone
[4] = cited from earlier work
[5] = system: superoxide production (O2^−-production); assay: PMA-stimulated superoxide production (O2−-production) of human monocytes in vitro, INT formazan; format: cell-based; details: RPMI-1640, 20 hours
[6] = system: superoxide dismutases (SOD); assay: activity of superoxide dismutases; format: cell-based
[7] = 1,8-cineole 0.0015 μg/ml (10^−8 mol/l)
[8] = 1,8-cineole 1.2 μg/ml (8 × 10^−6 mol/l)
[9] = 1,8-cineole 1.5 μg/ml (10^−5 mol/l)
[10] = 1,8-cineole 3.0 μg/ml (2 × 10^−5 mol/l)

Question: With `CCN(CCO)CCCC(C)Nc1ccnc2cc(Cl)ccc12` (stereo not shown) [hydroxychloroquine] as the compound, how does the “efficacy in COVID-19” value (COVID-19 [1]) read?
Answer: Its value is “no evidence of efficacy”.

Question: With “Tocilizumab: monoclonal antibody approved for rheumatoid arthritis and cytokine release syndrome” as the compound, how does the “efficacy in COVID-19” value (COVID-19 [1]) read?
Answer: The value was “ineffective”.

Question: For `CC12CCC(CC1)C(C)(C)O2` [1,8-cineole, 1,3,3-trimethyl-2-oxabicyclo[2.2.2]octane], which NO-production (NO-production; low subtherapeutic concentrations of 1,8-cineole) is on record?
Answer: Its NO-production is “inhibit NO-production”.

Question: What about the NO-production (NO-production; therapeutic dose range of 1,8-cineole) of the same compound?
Answer: Its NO-production is “strong or significant stimulatory effects on NO-production”.

Question: And the “production of H2O2” value (hydrogen peroxide (H2O2))?
Answer: Its value is “inhibits”.

Question: What about the “course of infection, especially hypercytokinemia” value (COVID-19 [2]) of the same compound?
Answer: Its value is “prevented or attenuated”.

Question: And the “outbreak of infection, especially hypercytokinemia” value (corona viruses)?
Answer: The value was “prevented or reduced”.

Question: What about the “virus replication and production of hyperinflammatory cytokines in thrombocytes” value (corona viruses; healthy thrombocytes incubated with COVID-19, subsequently incubation with 1,8-cineole) of the same compound?
Answer: The value was “inhibited”.

Question: And the “monocyte IL-1beta production, result in words” value (IL-1beta; 10^−6 mol/l, compared with the control)?
Answer: The value was “significantly inhibited”.

Question: And the IL-1beta (IL-1beta; 10^−6 mol/l, 20 hours)?
Answer: Its IL-1beta is 3548 ± 600 pg/5 × 10^−4 cells.

Question: And the “effect vs. control inhibition (%)” value (IL-1beta; 10^−6 mol/l, 20 hours)?
Answer: The value was 32.4 ± 17%.

Question: And the “production of TNF-alpha” value [3]?
Answer: Its value is “significant inhibitory effect”.

Question: What about the “production of IL-8” value (IL-8 (interleukin-8)) of the same compound?
Answer: Its value is “significant inhibitory effect”.

Question: And the solubility in water [4]?
Answer: The solubility in water was “insoluble in water”.

Question: And the INT-formazan [5, 7]?
Answer: The INT-formazan was 5364 ± 229 nmol/10^5.

Question: And the “comparison to control (%)” value [5, 7]?
Answer: The value was “+27.6 ± 4%”.

Question: And the INT-formazan [5, 8]?
Answer: Its INT-formazan is 4099 ± 234 nmol/10^5.

Question: What about the “comparison to control (%)” value [5, 8] of the same compound?
Answer: The value was −2.5 ± 6%.

Question: And the INT-formazan [5, 9]?
Answer: Its INT-formazan is 2438 ± 389 nmol/10^5.

Question: What about the “comparison to control (%)” value [5, 9] of the same compound?
Answer: Its value is −42 ± 16%.

Question: What about the INT-formazan [5, 10] of the same compound?
Answer: Its INT-formazan is 634 ± 139 nmol/10^5.

Question: What about the “comparison to control (%)” value [5, 10] of the same compound?
Answer: Its value is −84.9 ± 22%.

Question: What about the superoxide dismutase activity [6] of the same compound?
Answer: Its superoxide dismutase activity is “partially inhibited”.

Question: For `C[C@@H]1C[C@H]2[C@@H]3CCC4=CC(=O)C=C[C@]4(C)[C@@]3(F)[C@@H](O)C[C@]2(C)[C@@]1(O)C(=O)CO` [dexamethasone, 9-fluoro-16alpha-methylprednisolone], which IL-1beta (IL-1beta; dex. 10^−9 mol/l) is on record?
Answer: The IL-1beta was 2655 ± 546 pg/5 × 10^−4 cells.

Question: And the “effect vs. control inhibition (%)” value (IL-1beta; dex. 10^−9 mol/l)?
Answer: Its value is 49.5 ± 20%.

Question: And the IL-1beta (IL-1beta; dex. 10^−12 mol/l)?
Answer: The IL-1beta was 5245 ± 1027 pg/5 × 10^−4 cells.

Question: What about the “effect vs. control inhibition (%)” value (IL-1beta; dex. 10^−12 mol/l) of the same compound?
Answer: The value was 0.1 ± 19%.

Question: For `CCN(CC)CCCC(C)Nc1ccnc2cc(Cl)ccc12` (stereo not shown) [Chloroquine], which “efficacy in COVID-19” value (COVID-19 [1]) is on record?
Answer: The value was “no evidence of efficacy”.
